# Results reported in patent US20260166128A1, “HUMAN AMYLIN ANALOG, AND DERIVATIVE THEREOF AND USE THEREOF” (priority 2022, published 2026).
# Numbered stars: 1 amine (or outer) side, 2 acyl side, 3 side chain; on linkers, the order of the positions; unused ones are H or OH. Bridge positions count the residues as written; N and C are the ends. Square brackets hold non-standard residues; d marks the D form. Side chains are listed from the residue outwards. Peptide text beside a SMILES is read from it. * marks the point of attachment. C20 diacid = O=C(O)CCCCCCCCCCCCCCCCCCC(=O)*; C18 diacid = O=C(O)CCCCCCCCCCCCCCCCC(=O)*; γGlu = O=C(O)[C@H](CCC(=O)[*:2])N[*:1]; cisHyp = O=C(O)[C@@H]1C[C@H](O)CN1; Hyp = O=C(O)[C@@H]1C[C@@H](O)CN1; AEEA = NCCOCCOCC(=O)O
# Molecular target: T1, human amylin receptor (Homo sapiens, UniProt O60896+P30988)
# T1 construct: host or cells: CHO-K1/Ga15/AMY3 cells, further stably transfected with a CRE-luciferase plasmid
# T1 sequence (P30988 25-474): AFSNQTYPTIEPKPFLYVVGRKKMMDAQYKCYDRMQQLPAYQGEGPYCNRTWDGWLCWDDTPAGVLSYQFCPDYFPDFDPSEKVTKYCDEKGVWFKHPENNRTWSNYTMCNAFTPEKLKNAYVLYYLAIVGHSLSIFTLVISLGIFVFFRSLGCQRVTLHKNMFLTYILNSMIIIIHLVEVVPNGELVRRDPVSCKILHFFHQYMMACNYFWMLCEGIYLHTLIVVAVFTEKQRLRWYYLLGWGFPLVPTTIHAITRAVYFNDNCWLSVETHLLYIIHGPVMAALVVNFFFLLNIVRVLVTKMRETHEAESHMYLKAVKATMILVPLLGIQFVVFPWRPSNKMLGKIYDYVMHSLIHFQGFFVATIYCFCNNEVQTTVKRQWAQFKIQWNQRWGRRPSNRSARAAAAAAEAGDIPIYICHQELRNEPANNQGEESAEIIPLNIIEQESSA
# T1 sequence (O60896 24-148 partner): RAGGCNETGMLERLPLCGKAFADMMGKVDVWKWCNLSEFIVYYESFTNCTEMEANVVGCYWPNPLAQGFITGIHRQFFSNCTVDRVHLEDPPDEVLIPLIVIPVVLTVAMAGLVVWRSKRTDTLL
# Assay: Luciferase assay of amylin derivatives in amylin receptor/CRE-luc CHO cell line
# Assay type: cell-based
# Details: CHO-K1/Ga15/AMY3 CRE-luc cells, 24 hours incubation, F12 medium containing 10% FBS; read-out: EC50
# Procedure: The experiment was intended to detect the activity or efficacy of the amylin derivatives on a human amylin receptor in vitro by luciferase assay.
# 50 μL of growth medium (F12 medium containing 10% FBS) was added into each well of a white 96-well plate, and the stably transfected amylin/CRE-lue CHO cells were inoculated into the white 96-well plate at a density of about 20,000 cells/well for activity determination.
row,EC50,Structure (SMILES)
1,909 pM,CC[C@H](C)[C@H](NC(=O)[C@@H]1CCCN1C(=O)[C@H](CCCCNC(=O)CC[C@H](NC(=O)CCCCCCCCCCCCCCCCCCC(=O)O)C(=O)O)NC(=O)[C@H](CC(C)C)NC(=O)[C@H](CC(N)=O)NC(=O)[C@H](CC(N)=O)NC(=O)[C@H](CO)NC(=O)[C@H](CO)NC(=O)[C@H](Cc1c[nH]cn1)NC(=O)[C@H](CCCNC(=N)N)NC(=O)[C@H](CC(C)C)NC(=O)[C@H](Cc1ccccc1)NC(=O)[C@H](CCC(=O)O)NC(=O)[C@H](C)NC(=O)[C@H](CC(C)C)NC(=O)[C@H](CCCNC(=N)N)NC(=O)[C@H](CCC(N)=O)NC(=O)[C@@H](NC(=O)[C@H](C)NC(=O)[C@@H]1CSSC[C@H](NC(=O)[C@@H](N)CCCNC(=N)N)C(=O)N[C@@H](CC(N)=O)C(=O)N[C@@H]([C@@H](C)O)C(=O)N[C@@H](C)C(=O)N[C@@H]([C@@H](C)O)C(=O)N1)[C@@H](C)O)C(=O)N[C@@H](CC(C)C)C(=O)N1CCC[C@H]1C(=O)N1CCC[C@H]1C(=O)N[C@H](C(=O)N[C@@H](CC(N)=O)C(=O)N[C@H](C(=O)NCC(=O)N[C@@H](CO)C(=O)N[C@@H](CC(N)=O)C(=O)N[C@H](C(=O)N1C[C@@H](O)C[C@H]1C(N)=O)[C@@H](C)O)C(C)C)[C@@H](C)O [PD055] (H-RCNTATCATQRLAEFLRHSSNNLK([γGlu-C20 diacid])PILPPTNVGSNT[cisHyp]-NH2; disulfide 2-7)
2,33 pM,CC[C@H](C)[C@H](NC(=O)[C@@H]1CCCN1C(=O)CNC(=O)[C@H](CC(C)C)NC(=O)[C@H](CCCCNC(=O)CC[C@H](NC(=O)CCCCCCCCCCCCCCCCCCC(=O)O)C(=O)O)NC(=O)[C@H](CC(N)=O)NC(=O)[C@H](CO)NC(=O)[C@H](CO)NC(=O)[C@H](Cc1c[nH]cn1)NC(=O)[C@H](CCCNC(=N)N)NC(=O)[C@H](CC(C)C)NC(=O)[C@H](Cc1ccccc1)NC(=O)[C@H](CC(=O)O)NC(=O)[C@H](C)NC(=O)[C@H](CC(C)C)NC(=O)[C@H](CCCNC(=N)N)NC(=O)[C@H](CCC(N)=O)NC(=O)[C@@H](NC(=O)[C@H](C)NC(=O)[C@@H]1CSSC[C@H](NC(=O)[C@@H](N)CCCNC(=N)N)C(=O)N[C@@H](CC(N)=O)C(=O)N[C@@H]([C@@H](C)O)C(=O)N[C@@H](C)C(=O)N[C@@H]([C@@H](C)O)C(=O)N1)[C@@H](C)O)C(=O)N[C@@H](CC(C)C)C(=O)N1CCC[C@H]1C(=O)N1CCC[C@H]1C(=O)N[C@H](C(=O)N[C@@H](CC(N)=O)C(=O)N[C@H](C(=O)NCC(=O)N[C@@H](CO)C(=O)N[C@@H](CC(N)=O)C(=O)N[C@H](C(=O)N1C[C@H](O)C[C@H]1C(N)=O)[C@@H](C)O)C(C)C)[C@@H](C)O [PD086] (H-RCNTATCATQRLADFLRHSSNK([γGlu-C20 diacid])LGPILPPTNVGSNT[Hyp]-NH2; disulfide 2-7)
3,18 pM,CC[C@H](C)[C@H](NC(=O)[C@@H]1CCCN1C(=O)CNC(=O)[C@H](CC(C)C)NC(=O)[C@H](CCCCNC(=O)COCCOCCNC(=O)COCCOCCNC(=O)CC[C@H](NC(=O)CCCCCCCCCCCCCCCCC(=O)O)C(=O)O)NC(=O)[C@H](CC(N)=O)NC(=O)[C@H](CO)NC(=O)[C@H](CO)NC(=O)[C@H](Cc1c[nH]cn1)NC(=O)[C@H](CCCNC(=N)N)NC(=O)[C@H](CC(C)C)NC(=O)[C@H](Cc1ccccc1)NC(=O)[C@H](CC(=O)O)NC(=O)[C@H](C)NC(=O)[C@H](CC(C)C)NC(=O)[C@H](CCCNC(=N)N)NC(=O)[C@H](CCC(N)=O)NC(=O)[C@@H](NC(=O)[C@H](C)NC(=O)[C@@H]1CSSC[C@H](NC(=O)[C@@H](N)CCCNC(=N)N)C(=O)N[C@@H](CC(N)=O)C(=O)N[C@@H]([C@@H](C)O)C(=O)N[C@@H](C)C(=O)N[C@@H]([C@@H](C)O)C(=O)N1)[C@@H](C)O)C(=O)N[C@@H](CC(C)C)C(=O)N1CCC[C@H]1C(=O)N1CCC[C@H]1C(=O)N[C@H](C(=O)N[C@@H](CC(N)=O)C(=O)N[C@H](C(=O)NCC(=O)N[C@@H](CO)C(=O)N[C@@H](CC(N)=O)C(=O)N[C@H](C(=O)N1C[C@H](O)C[C@H]1C(N)=O)[C@@H](C)O)C(C)C)[C@@H](C)O [PD089] (H-RCNTATCATQRLADFLRHSSNK([AEEA-AEEA-γGlu-C18 diacid])LGPILPPTNVGSNT[Hyp]-NH2; disulfide 2-7)
